Values quoted from earlier work in patent publication US20210145797A1, “COMPOSITIONS FOR TREATING SKIN” (UNIVERSITY OF FLORIDA RESEARCH FOUNDATION, INCORPORATED, priority 2018, published 2021).

Tested on: herpes simplex
Conditions: topical over-the-counter treatment of herpes simplex

For `CCCCCCCCCCCCCCCCCCCCCCO` [N-docosanol], the “improvement of time of healing” value (4.1 days to 2.5 days) is listed as 1.5 days and the “time of healing (median)” value (from a median of 4.1 days) is listed as 2.5 days.
